This note sets out measurements from patent publication US11773078B2, “Furin inhibitors” (Glaxosmithkline Intellectual Property Development Limited, priority 2018, dated 2023).

Test [1] deals with T1, Furin (108-574-Tev-Flag-His) enzyme (Homo sapiens, UniProt P09958).
T1 construct: Furin (108-574-Tev-Flag-His) enzyme was expressed and purified from CHO cells; TEV cleavage site (C); FLAG (C); His (C); made in house; host or cells: CHO cells
Kind of test: Furin enzyme assay. The class given is biochemical. The following applies: for IC50: read-out: furin enzyme pIC50 (converted). The gist of the method: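 Compounds ran as 11-point threefold dilutions (0.00017–10 μM final) against 40 pM furin, purified from CHO cells, for 2 h at room temperature. Buffer: 100 mM HEPES pH7.5 with 1 mM CaCl2 and 0.005% Triton X-100. Envision readout. Four-parameter curve gives pXC50.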

Test [2] has as its target T2, furin (endogenous protease) in U20S cells (Homo sapiens, UniProt P09958).
T2 construct: the endogenous protease cleaves GFP; endogenous in cells; host or cells: U2OS cells transduced with a BacMam reporter
Briefly: Furin cell-based assay (image-based, Golgi-targeted GFP with BMP10 furin/PCSK cleavage site).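 Further: Read-out is mean GFP fluorescence of Golgi puncta per cell by high-content imaging, retained when furin inhibited, over an eleven-point 0.00017–10 µM series, four-parameter fit.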 The following applies: 24-hour incubation, read-out: furin golgi cell pXC50 (converted).

T2 sequence (P09958 108-794): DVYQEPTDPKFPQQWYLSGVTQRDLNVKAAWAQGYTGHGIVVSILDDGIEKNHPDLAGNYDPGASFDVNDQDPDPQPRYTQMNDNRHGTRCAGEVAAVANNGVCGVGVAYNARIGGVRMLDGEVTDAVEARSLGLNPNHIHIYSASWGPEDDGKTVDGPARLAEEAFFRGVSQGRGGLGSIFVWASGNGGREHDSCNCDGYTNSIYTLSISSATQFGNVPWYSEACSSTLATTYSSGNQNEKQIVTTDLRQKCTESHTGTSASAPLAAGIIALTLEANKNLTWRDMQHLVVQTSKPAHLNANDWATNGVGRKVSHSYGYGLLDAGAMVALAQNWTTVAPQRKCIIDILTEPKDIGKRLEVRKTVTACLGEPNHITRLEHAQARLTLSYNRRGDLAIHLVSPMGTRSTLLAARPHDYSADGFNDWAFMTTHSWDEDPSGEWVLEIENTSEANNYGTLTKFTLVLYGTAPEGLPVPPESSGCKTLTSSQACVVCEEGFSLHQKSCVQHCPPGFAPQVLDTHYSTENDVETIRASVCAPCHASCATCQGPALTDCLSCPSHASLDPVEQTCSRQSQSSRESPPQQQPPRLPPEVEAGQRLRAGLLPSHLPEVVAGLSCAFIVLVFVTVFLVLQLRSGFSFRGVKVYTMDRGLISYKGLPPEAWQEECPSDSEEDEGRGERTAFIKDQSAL
T1 sequence (P09958 108-574): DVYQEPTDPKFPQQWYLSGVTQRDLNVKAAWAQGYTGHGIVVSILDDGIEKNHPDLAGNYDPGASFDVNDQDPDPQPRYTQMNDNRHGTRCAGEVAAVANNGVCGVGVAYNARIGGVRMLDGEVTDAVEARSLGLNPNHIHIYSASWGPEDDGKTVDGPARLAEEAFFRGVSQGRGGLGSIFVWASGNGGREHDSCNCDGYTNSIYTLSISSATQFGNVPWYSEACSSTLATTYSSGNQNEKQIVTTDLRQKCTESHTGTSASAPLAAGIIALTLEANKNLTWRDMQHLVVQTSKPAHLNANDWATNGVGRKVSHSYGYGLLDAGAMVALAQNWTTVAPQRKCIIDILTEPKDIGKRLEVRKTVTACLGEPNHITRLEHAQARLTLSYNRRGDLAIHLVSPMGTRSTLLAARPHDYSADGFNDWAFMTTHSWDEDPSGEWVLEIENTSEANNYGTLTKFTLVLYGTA

On to `CC(=O)NCC1CCN(Cc2cc(Oc3ccc(N4CCN(CCC(=O)O)CC4)nn3)nc(-c3cc(Cl)cc(Cl)c3)c2)CC1` [Example 169, 3-(4-(6-((4-((4-(acetamidomethyl)piperidin-1-yl)methyl)-6-(3,5-dichlorophenyl)pyridin-2-yl)oxy)pyridazin-3-yl)piperazin-1-yl)propanoic acid], for which the IC50 in test [1] was 0.0316 nM. In addition, the EC50 in test [2] is 1260 nM.
Take `CC(=O)NCC1CCN(Cc2cc(Oc3cnc(N4CCN(CCC(N)=O)CC4)nc3)cc(-c3cc(Cl)cc(Cl)c3)c2)CC1` [Example 170, 3-(4-(5-((5-((4-(acetamidomethyl)piperidin-1-yl)methyl)-3′,5′-dichloro-[1,1′-biphenyl]-3-yl)oxy)pyrimidin-2-yl)piperazin-1-yl)propanamide]: in test [1], the IC50 is 0.794 nM. For the same compound, the EC50 in test [2] was 12.6 nM.
Regarding `CNC(=O)NCC1CCN(Cc2cc(Oc3cnc(N4CCN(CCCO)CC4)nc3)nc(-c3cc(Cl)cc(Cl)c3)c2)CC1` [Example 171, 1-((1-((2-(3,5-dichlorophenyl)-6-((2-(4-(3-hydroxypropyl)piperazin-1-yl)pyrimidin-5-yl)oxy)pyridin-4-yl)methyl)piperidin-4-yl)methyl)-3-methylurea], the “furin enzyme pIC50” value in test [1] came to 10.7. Further, the EC50 in test [2] was 2 nM.
`CC(=O)NCC1CCN(Cc2cc(Oc3cnc(N4CCN(CCC5(C(=O)O)CC5)CC4)nc3)nc(-c3cc(Cl)cc(Cl)c3)c2)CC1` [Example 173, 1-(2-(4-(5-((4-((4-(acetamidomethyl)piperidin-1-yl)methyl)-6-(3,5-dichlorophenyl)pyridin-2-yl)oxy)pyrimidin-2-yl)piperazin-1-yl)ethyl)cyclopropanecarboxylic acid]: the IC50 in test [1] is 0.398 nM. In addition, the EC50 in test [2] was 1.26 nM.
As for `CC(=O)NCC1CCN(Cc2cc(Oc3ccc(N4CCN(CCC(C)C(=O)O)CC4)nc3)nc(-c3cc(Cl)cc(Cl)c3)c2)CC1` (centres unmarked) [Example 174, 4-(4-(5-((4-((4-(acetamidomethyl)piperidin-1-yl)methyl)-6-(3,5-dichlorophenyl)pyridin-2-yl)oxy)pyridin-2-yl)piperazin-1-yl)-2-methylbutanoic acid], the “furin enzyme pIC50” value in test [1] was determined as 9.2. Also, in test [2], the EC50 is 20 nM.
For the compound `COC(=O)NC(=O)CCN1CCN(c2ccc(Oc3cc(CN4CCC(CNC(C)=O)CC4)cc(-c4cc(Cl)cc(Cl)c4)n3)cn2)CC1` [Example 176, methyl (3-(4-(5-((4-((4-(acetamidomethyl)piperidin-1-yl)methyl)-6-(3,5-dichlorophenyl)pyridin-2-yl)oxy)pyridin-2-yl)piperazin-1-yl)propanoyl)carbamate], in test [1], the “furin enzyme pIC50” value worked out at 9. Further, in test [2], the EC50 is 3.98 nM.
In the case of `O=C(O)CC1CCN(Cc2cc(Oc3cnc(N4CCN(CC(O)CO)CC4)nc3)nc(-c3cc(Cl)cc(Cl)c3)c2)CC1` (centres unmarked) [Example 177, 2-(1-((2-(3,5-dichlorophenyl)-6-((2-(4-(2,3-dihydroxypropyl)piperazin-1-yl)pyrimidin-5-yl)oxy)pyridin-4-yl)methyl)piperidin-4-yl)acetic acid], the “furin enzyme pIC50” value in test [1] was 9.2. In addition, in test [2], the EC50 is 20 nM.
On to `CC(=O)NCC1CCN(Cc2cc(Oc3ccc(N4CC[N+](C)(O)CC4)nc3)nc(-c3cc(Cl)cc(Cl)c3)c2)CC1` [Example 178, 4-(5-((4-((4-(Acetamidomethyl)piperidin-1-yl)methyl)-6-(3,5-dichlorophenyl)pyridin-2-yl)oxy)pyridin-2-yl)-1-methylpiperazine1-oxide], for which the “furin enzyme pIC50” value in test [1] is 8.9. Besides, in test [2], the EC50 was under 2.51 nM.
Regarding `CC(=O)NCC1CCN(Cc2cc(Oc3ccc(N4CC[N+](CCO)(CCO)CC4)nc3)nc(-c3cc(Cl)cc(Cl)c3)c2)CC1` [Example 179, 1-(4-(5-((4-((4-(Acetamidomethyl)piperidin-1-yl)methyl)-6-(3,5-dichlorophenyl)pyridin-2-yl)oxy)pyridin-2-yl)-1-(2-hydroxyethyl)piperazin-1-ium-1-yl)-2-hydroxyethan-1-ide], the “furin enzyme pIC50” value in test [1] stood at 8.8. In test [2], the EC50 is 12.6 nM.
Consider `CC(=O)NCC1CCN(Cc2cc(Oc3ccc(N4CC[N+](C)(C)CC4)nc3)nc(-c3cc(Cl)cc(Cl)c3)c2)CC1.[Cl-]` [Example 181, 4-(5-((4-((4-(Acetamidomethyl)piperidin-1-yl)methyl)-6-(3,5-dichlorophenyl)pyridin-2-yl)oxy)pyridin-2-yl)-1,1-dimethylpiperazin-1-ium chloride], for which the “furin enzyme pIC50” value in test [1] was 9. Further, the EC50 in test [2] is 79.4 nM.
For the compound `CC(=O)NCC1CCN(Cc2cc(Oc3ccc(N4C[C@@H]5C[C@H]4CN5CCS(C)(=O)=O)nc3)nc(-c3cc(Cl)cc(Cl)c3)c2)CC1` [Example 183, N-((1-((2-(3,5-Dichlorophenyl)-6-((6-((1S,4S)-5-(2-(methylsulfonyl)ethyl)-2,5-diazabicyclo[2.2.1]heptan-2-yl)pyridin-3-yl)oxy)pyridin-4-yl)methyl)piperidin-4-yl)methyl)acetamide], the IC50 in test [1] is 0.0251 nM. Also, the EC50 in test [2] was 12.6 nM.
As for `CC(=O)NCC1CCN(Cc2cc(Oc3ccc(N4CC5CCC(C4)N5CCC(=O)O)nc3)nc(-c3cc(Cl)cc(Cl)c3)c2)CC1` [Example 185, 3-(3-(5-((4-((4-(Acetamidomethyl)piperidin-1-yl)methyl)-6-(3,5-dichlorophenyl)pyridin-2-yl)oxy)pyridin-2-yl)-3,8-diazabicyclo[3.2.1]octan-8-yl)propanoic acid], in test [1], the “furin enzyme pIC50” value is on record as 9.5. In test [2], the EC50 is 31.6 nM.
For `CC(=O)NCC1CCN(Cc2cc(Oc3ccc(N4CCN(CCC(=O)O)[C@@H](C)C4)nc3)nc(-c3cc(Cl)cc(Cl)c3)c2)CC1` [Example 186, (S)-3-(4-(5-((4-((4-(acetamidomethyl)piperidin-1-yl)methyl)-6-(3,5-dichlorophenyl)pyridin-2-yl)oxy)pyridin-2-yl)-2-methylpiperazin-1-yl)propanoic acid], in that order: 9.1 and 39.8 nM.
Consider `O=C(O)CC1CCN(Cc2cc(Oc3ccc(N4C[C@@H]5C[C@H]4CN5)nc3)nc(-c3cc(Cl)cc(Cl)c3)c2)CC1` [Example 187, 2-(1-((2-((6-((1S,4S)-2,5-diazabicyclo[2.2.1]heptan-2-yl)pyridin-3-yl)oxy)-6-(3,5-dichlorophenyl)pyridin-4-yl)methyl)piperidin-4-yl)acetic acid], for which, in test [1], the IC50 is 1.26 nM. For the same compound, in test [2], the EC50 was 79.4 nM.
Regarding `CCC(CCN1CCN(c2ccc(Oc3cc(CN4CCC(CNC(C)=O)CC4)cc(-c4cc(Cl)cc(Cl)c4)n3)cn2)CC1)C(=O)O` (centres unmarked) [Example 188, 4-(4-(5-((4-((4-(acetamidomethyl)piperidin-1-yl)methyl)-6-(3,5-dichlorophenyl)pyridin-2-yl)oxy)pyridin-2-yl)piperazin-1-yl)-2-ethylbutanoic acid], the “furin enzyme pIC50” value in test [1] is 8.8. The EC50 in test [2] is 12.6 nM.
Turning to `CC(=O)NCC1CCN(Cc2cc(Oc3ccc(N4CCN(CC(C)(C)C(=O)O)CC4)nc3)nc(-c3cc(Cl)cc(Cl)c3)c2)CC1` [Example 189, 3-(4-(5-((4-((4-(acetamidomethyl)piperidin-1-yl)methyl)-6-(3,5-dichlorophenyl)pyridin-2-yl)oxy)pyridin-2-yl)piperazin-1-yl)-2,2-dimethylpropanoic acid], the “furin enzyme pIC50” value in test [1] was 8.7. In test [2], the EC50 was 31.6 nM.
